Laboratory results published in patent publication US20250019373A1, “ARYL OR HETEROARYL DERIVATIVE, AND PHARMACEUTICAL COMPOSITION COMPRISING SAME AS ACTIVE INGREDIENT FOR PREVENTION OR TREATMENT OF KINASE-RELATED DISEASES” (VORONOI INC., priority 2021, published 2025).

tested on: HT-29 cells; assay: Cell necrosis inhibitory activity under necroptosis-inducing conditions (TNF-α, Z-VAD-FMK, LCL161) in HT-29 cells, Cell Titer-Glo; format: cell-based; settings: Homo sapiens, 100 ng/mL TNF-α + 25 μM Z-VAD-FMK + Smac mimetic LCL161, 24 hours, cell viability
Method in brief: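 HT-29 cells seeded 24 h, then necroptosis induced with 100 ng/mL TNF-α, 25 μM Z-VAD-FMK and 10 μM LCL161 for 10 min before compound (11 points, 3-fold, top 0.1 or 1 μM; 0.05% DMSO). After 24 h, viability by CellTiter-Glo luminescence relative to untreated controls gave EC50 (nM).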

Row | SMILES | EC50 [pM]
1 | COc1ncc(-c2ccc3nc(N)nn3c2)cc1NC(=O)N1OCC[C@H]1c1ccccc1 [Example 30, (S)-N-(5-(2-amino-[1,2,4]triazolo[1,5-a]pyridin-6-yl)-2-methoxypyridin-3-yl)-3-phenylisoxazolidine-2-carboxamide] | 3800
2 | COc1ncc(-c2ccc3nc(NC(C)=O)cn3n2)cc1NC(=O)N1OCC[C@H]1c1ccccc1 [Example 3, (S)-N-(5-(2-acetamidoimidazo[1,2-b]pyridazin-6-yl)-2-methoxypyridin-3-yl)-3-phenylisoxazolidine-2-carboxamide] | 600
3 | Cc1ncc(-c2csc3c(N)ncnc23)cc1NC(=O)N1OCC[C@H]1c1ccccc1 [Example 121, (S)-N-(5-(4-aminothieno[3,2-d]pyrimidine-7-y1)-2-methylpyridin-3-yl)-3-phenylisoxazolidine-2-carboxamide] | 11700
4 | COc1ncc(-c2ccc3nc(NC(=O)C4CC4)cn3n2)cc1NC(=O)N1OCC[C@H]1c1ccccc1 [Example 4, (S)-N-(5-(2-(cyclopropanecarboxamido)imidazo[1,2-b]pyridazin-6-yl)-2-methoxypyridin-3-yl)-3-phenylisoxazolidine-2-carboxamide] | 200
5 | Cc1ccc(-c2ccc3ncn(C)c3n2)cc1NC(=O)N1OCC[C@H]1c1ccccc1 [Example 143, (S)-N-(2-methyl-5-(3-methyl-3H-imidazo[4,5-b]pyridin-5-yl)phenyl)-3-phenylisoxazolidine-2-carboxamide] | 5000
6 | Cc1ncc(-c2ccc3nc(N)nn3c2)cc1NC(=O)N1OCC[C@H]1c1ccc(Cl)cc1 [Example 69, (S)-N-(5-(2-amino-[1,2,4]triazolo[1,5-a]pyridin-6-yl)-2-methylpyridin-3-yl)-3-(4-chlorophenyl)isoxazolidine-2-carboxamide] | 400
7 | Cc1ccc(-c2ccc3nc(N)sc3n2)cc1NC(=O)N1OCC[C@H]1c1ccccc1 [Example 98, (S)-N-(5-(2-aminothiazolo[5,4-b]pyridin-5-yl)-2-methylphenyl)-3-phenylisoxazolidine-2-carboxamide] | 300
8 | Cc1ccc(-c2ccn3nc(N)nc3c2)cc1NC(=O)N1OCC[C@H]1c1cc(F)cc(F)c1 [Example 63, (S)-N-(5-(2-amino-[1,2,4]triazolo[1,5-a]pyridin-7-yl)-2-methylphenyl)-3-(3,5-difluorophenyl)isoxazolidine-2-carboxamide] | 200
9 | Cc1ncc(-c2ccc3nc(N)nn3c2)cc1NC(=O)N1OCC[C@H]1c1cc(F)cc(C(F)(F)F)c1 [Example 43, (S)-N-(5-(2-amino-[1,2,4]triazolo[1,5-a]pyridin-6-yl)-2-methylpyridin-3-yl)-3-(3-fluoro-5-(trifluoromethyl)phenyl)isoxazolidine-2-carboxamide] | 7300
10 | Cc1ccc(-c2ccc3nc(N)cn3n2)cc1NC(=O)N1OCC[C@H]1c1ccccc1 [Example 95, (S)-N-(5-(2-aminoimidazo[1,2-b]pyridazin-6-yl)-2-methylphenyl)-3-phenylisoxazolidine-2-carboxamide] | 7500
11 | COCC(=O)Nc1cn2nc(-c3cnc(OC)c(NC(=O)N4OCC[C@H]4c4ccccc4)c3)ccc2n1 [Example 6, (S)-N-(2-methoxy-5-(2-(2-methoxyacetamido)imidazo[1,2-b]pyridazin-6-yl)pyridin-3-yl)-3-phenylisoxazolidine-2-carboxamide] | 900
12 | COc1ccc(-c2ccc3nc(NC(C)=O)cn3n2)cc1NC(=O)N1OCC[C@H]1c1ccccc1 [Example 8, (S)-N-(5-(2-acetamidoimidazo[1,2-b]pyridazin-6-yl)-2-methoxyphenyl)-3-phenylisoxazolidine-2-carboxamide] | 400
13 | Cc1ncc(-c2ccc3nc(N)nn3c2)cc1NC(=O)N1OCC[C@H]1c1cccc(F)c1 [Example 37, (S)-N-(5-(2-amino-[1,2,4]triazolo[1,5-a]pyridin-6-yl)-2-methylpyridin-3-yl)-3-(3-fluorophenyl)isoxazolidine-2-carboxamide] | 1100
14 | Cc1ccc(-c2ccn3nc(N)nc3c2)cc1NC(=O)N1OCC[C@H]1c1ccc(F)cc1 [Example 64, (S)-N-(5-(2-amino-[1,2,4]triazolo[1,5-a]pyridin-7-yl)-2-methylphenyl)-3-(4-fluorophenyl)isoxazolidine-2-carboxamide] | 200
15 | Nc1nc2cc(-c3ccc(Cl)c(NC(=O)N4OCC[C@H]4c4ccccc4)c3)ccn2n1 [Example 124, (S)-N-(5-(2-amino-[1,2,4]triazolo[1,5-a]pyridin-7-yl)-2-chlorophenyl)-3-phenylisoxazolidine-2-carboxamide] | 200
16 | COc1ncc(-c2cc(C(F)(F)F)c3c(N)ncnn23)cc1NC(=O)N1OCC[C@H]1c1ccccc1 [Example 129, (S)-N-(5-(4-amino-5-(trifluoromethyl)pyrrolo[2,1-f][1,2,4]triazin-7-yl)-2-methoxypyridin-3-yl)-3-phenylisoxazolidine-2-carboxamide] | 3600
17 | CC(=O)Nc1nc2ccc(-c3cnc(C)c(NC(=O)N4OCC[C@H]4c4ccccc4)c3)cc2s1 [Example 28, (S)-N-(5-(2-acetamidobenzo[d]thiazol-6-yl)-2-methylpyridin-3-yl)-3-phenylisoxazolidine-2-carboxamide] | 200
18 | Cc1ccc(-c2ccc3c(N)ncnn23)cc1NC(=O)N1OCC[C@H]1c1ccccc1 [Example 100, (S)-N-(5-(4-aminopyrrolo[2,1-f][1,2,4]triazin-7-yl)-2-methylphenyl)-3-phenylisoxazolidine-2-carboxamide] | 4600
19 | Cc1ncc(-c2ccc3nc(N)nn3c2)cc1NC(=O)N1OCC[C@H]1c1ccc(F)cc1 [Example 56, (S)-N-(5-(2-amino-[1,2,4]triazolo[1,5-a]pyridin-6-yl)-2-methylpyridin-3-yl)-3-(4-fluorophenyl)isoxazolidine-2-carboxamide] | 700
20 | O=C(Nc1nc2ccc(-c3cccc(NC(=O)N4OCC[C@H]4c4ccccc4)c3)cc2s1)C1CC1 [Example 25, (S)-N-(3-(2-(cyclopropanecarboxamido)benzo[d]thiazol-6-yl)phenyl)-3-phenylisoxazolidine-2-carboxamide] | 200
21 | Cc1ccc(-c2csc3c(N)ncnc23)cc1NC(=O)N1OCC[C@H]1c1ccccc1 [Example 122, (S)-N-(5-(4-aminothieno[3,2-d]pyrimidine-7-yl)-2-methylphenyl)-3-phenylisoxazolidine-2-carboxamide] | 20400
22 | Cc1ccc(-c2ccc3nc(N)c(C(=O)[C@@H]4C[C@@H]4F)n3c2)cc1NC(=O)N1OCC[C@H]1c1ccccc1 [Example 135, (S)-N-(5-(2-amino-3-((1S,2S)-2-fluorocyclopropane-1-carbonyl)imidazo[1,2-a]pyridin-6-yl)-2-methylphenyl)-3-phenylisoxazolidine-2-carboxamide] | 200

biological target: T1, RIPK1 (Homo sapiens, UniProt Q13546); assay: RIPK1 inhibitory activity, DiscoverX scanMAX kinase panel (% control); format: binding; settings: drug concentration 1 μM in DMSO, <35% counted as active, read-out: control percentage (% control) RIPK1
T1 construct: purchased DiscoverX
T1 sequence (Q13546 1-671): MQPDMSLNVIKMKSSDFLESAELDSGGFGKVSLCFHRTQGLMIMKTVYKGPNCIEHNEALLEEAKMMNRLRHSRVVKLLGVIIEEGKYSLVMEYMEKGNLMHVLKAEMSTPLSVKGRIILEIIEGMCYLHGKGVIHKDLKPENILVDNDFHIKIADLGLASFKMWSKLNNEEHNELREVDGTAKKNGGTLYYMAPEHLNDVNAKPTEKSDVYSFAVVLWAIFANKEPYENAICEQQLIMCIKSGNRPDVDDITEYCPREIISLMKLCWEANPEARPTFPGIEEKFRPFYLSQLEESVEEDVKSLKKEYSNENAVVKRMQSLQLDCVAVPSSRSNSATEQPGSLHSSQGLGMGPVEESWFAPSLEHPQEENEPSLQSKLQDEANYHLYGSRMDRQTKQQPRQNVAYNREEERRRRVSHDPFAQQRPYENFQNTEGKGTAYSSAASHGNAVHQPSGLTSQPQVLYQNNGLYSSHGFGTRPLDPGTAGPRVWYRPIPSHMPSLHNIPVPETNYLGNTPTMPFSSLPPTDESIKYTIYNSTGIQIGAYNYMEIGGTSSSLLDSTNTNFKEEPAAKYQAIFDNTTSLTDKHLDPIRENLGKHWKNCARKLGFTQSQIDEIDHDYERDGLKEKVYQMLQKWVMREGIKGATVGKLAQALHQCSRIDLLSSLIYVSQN
Protocol: To evaluate the RIPK1 inhibitory activity of a compound according to the present invention, the following experiment was performed. Specifically, for Examples 3 and 30 selected from the compounds of Examples of the present invention, enzyme (kinase) selectivity was measured by DiscoverX, and the experiment was conducted using a panel for scanMAX™ kinase analysis. Here, the enzyme was treated with a drug having a concentration of 1 μM in DMSO, and a control percentage (% control) was determined in the same manner as Formula 1 below.
Here, the positive control refers to a compound showing a control percentage of 0%, and the negative control is DMSO showing a control percentage of 100%. In addition, in terms of the enzyme selectivity of the present invention, when the control percentage with respect to an enzyme is <35% (i.e., less than 35%), it was determined that the compound has activity against the corresponding enzyme.

Row | SMILES | remaining binding at 1 µM [%]
23 | COc1ncc(-c2ccc3nc(N)nn3c2)cc1NC(=O)N1OCC[C@H]1c1ccccc1 [Example 30, (S)-N-(5-(2-amino-[1,2,4]triazolo[1,5-a]pyridin-6-yl)-2-methoxypyridin-3-yl)-3-phenylisoxazolidine-2-carboxamide] | 0
24 | COc1ncc(-c2ccc3nc(NC(C)=O)cn3n2)cc1NC(=O)N1OCC[C@H]1c1ccccc1 [Example 3, (S)-N-(5-(2-acetamidoimidazo[1,2-b]pyridazin-6-yl)-2-methoxypyridin-3-yl)-3-phenylisoxazolidine-2-carboxamide] | 1
